Here are results for eight compounds from US20230165876A1, “METHYLTHIONINIUM COMPOUNDS FOR USE IN THE TREATMENT OF COVID-19” (WisTa Laboratories Ltd., priority 2020, published 2023).

The structures appear in SMILES notation. Where a SMILES comes first, the peptide text is derived from it. The star is where a group is joined. Cbz = O=C(OCc1ccccc1)*; CHN2 = [N-]=[N+]=C*

Series [1] has as its system SARS-CoV-2. The note with it: Vero E6 cells; screen concentration 5 µM; cited from earlier work.
For series [2], the system named is SARS-CoV-2. The note with it: 20 COVID-19 patients; cited from earlier work.
The test system of the next series is SARS-CoV. Conditions: cited from earlier work.
Series [3] deals with SARS-CoV-2. Conditions: cited from earlier work.
In series [4] the test system is SARS-CoV-2. The note with it: advanced COVID-19 cases, treated vs not treated; cited from earlier work.
Series [5] can be described thus: Phase 3 double-blind controlled studies of LMTM in AD and bvFTD, safety. The format is in vivo, human. The method, then: Three Phase 3, double-blind, controlled studies of LMTM have been completed (one each in subjects with mild and mild to moderate AD and one in subjects with bvFTD). Results of the AD studies have been published (Gauthier et al., 2016; Wilcock et al., 2018; Shiells et al., 2020). These studies provide an overview of the more common adverse events that might be expected at a dose of LMTM 16 mg/day. In these three studies, 1897 subjects received at least one dose of LMTM. Of these, 860 subjects received LMTM 8 mg/day and 1037 subjects received at least one dose of LMTM in the higher doses of 150 to 250 mg/day. The mean ages of study participants were 71 years (ranging up to 89 years) for subjects with AD and 63 years (ranging up to 79 years) for subjects with bvFTD.
The overall person-years of exposure to LMTM 8 mg/day was 995.2 person-years and to the higher LMTM doses of 150 to 250 mg/day was 988.6 person-years. Six percent (6%) of the subjects discontinued LMTM 8 mg/day due to adverse events; the proportion of subjects discontinuing due to adverse events in the higher dose groups was higher (14%).
The most common Treatment-Emergent Adverse Events (TEAEs) considered at least possibly associated with LMTM given in a dose of 8 mg/day were gastrointestinal (mostly diarrhoea and nausea), genitourinary (mostly pollakiuria and urinary incontinence), haematologic (anaemia, decreased folate, and folate deficiency), and nervous system related (mostly fatigue, dizziness, headache, agitation, and insomnia).
In summary, therefore, the safety of LMTM has been studied in over 2400 patients in Phase 1 and Phase 3 trials at repeat doses up to 450 mg/day. Even at the highest doses examined, the safety profile of LMTM remains benign and consistent with further clinical development.

Series [6] can be described thus: Oral doses with anti-viral activity and LMTM equivalent calculated from AD activity data. Also on record: species or system human. The note with it: calculated using the activity data in AD as basis for comparison.
The conditions of series [7]: LMTM in AD; cited from earlier work.
For series [8] the following is noted: LMTM relative to MTC; cited from earlier work.
A further series deals with red cells. Conditions: administered intravenously; LMTM relative to MTC; cited from earlier work.
A further series relates to Complex IV. Conditions: tau transgenic mouse model; cited from earlier work.

In the case of `C[C@@H]1CS/C(=N\NC(=O)C(=O)[C@@H](NC(=O)C2CCCCCC2)C2CCOCC2)N1C` [ONO 5334], the “inhibition of viral replication” value in the series with SARS-CoV-2 [1] is “inhibited viral replication”.

As for `CCN(CCO)CCCC(C)Nc1ccnc2cc(Cl)ccc12` (centres unmarked) [hydroxychloroquine], in the series on SARS-CoV-2 [2], the “viral load in nasal swabs” value was “significantly reduced viral load”.

`Cc1cccc(/C=N/Nc2cc(N3CCOCC3)nc(OCCc3ccccn3)n2)c1` [Apilimod]: the “inhibition of viral replication” value in the series with SARS-CoV-2 [1] was “inhibited viral replication”.

For the compound `CCN(CC)CCCC(C)Nc1ccnc2cc(Cl)ccc12` (centres unmarked) [chloroquine], the “effectiveness against SARS-CoV in vitro” value with SARS-CoV is “effectiveness”. Also, the “effectiveness against SARS-CoV-2 in vitro” value in the series on SARS-CoV-2 [3] is recorded as “effectiveness”. For the same compound, the “benefit in advanced cases (mortality rates)” value in the series with SARS-CoV-2 [4] is on record as “no benefit”.

Consider `CC[C@H](NC(=O)[C@H](CS(=O)(=O)CC1CC1)N[C@@H](c1ccc(F)cc1)C(F)(F)F)C(=O)C(=O)NC1CC1` [VBY-825], for which, in the series on SARS-CoV-2 [1], the “inhibition of viral replication” value is “inhibited viral replication”.

As for `CN(C)c1ccc2c(c1)Sc1cc(N(C)C)ccc1N2.CS(=O)(=O)O.CS(=O)(=O)O` [LMTM, N,N,N′,N′-tetramethyl-10H-phenothiazine-3,7-diaminium bis(hydromethanesulfonate)], in series [5] (LMTM 8 mg/day), the “change in RBC count, haemoglobin and haematocrit” value was “minimal change”; the “subjects discontinued due to adverse events” value was 6%. Also, the “vital sign measurements, ECGs, or the C-SSRS” value in series [5] (Phase 3 studies) is “No clinically meaningful trends”. For the same compound, the “RBC count, haemoglobin and haematocrit” value in series [5] (greater decreases in the higher dose groups (150 to 250 mg/day) compared to 8 mg/day) was “dose-dependent decreases”. In addition, in series [5] (higher LMTM doses of 150 to 250 mg/day), the “subjects discontinuing due to adverse events” value worked out at 14%. Further, the “incidence of anaemia-related TEAEs, gastrointestinal events and genitourinary events” value in [5] (higher LMTM doses, 150 to 250 mg/day) was “dose-related increase”. Further, the safety profile result in series [5] (over 2400 patients in Phase 1 and Phase 3 trials, repeat doses up to 450 mg/day) is “benign”. Further, the cardiotoxicity result in “Cardiotoxicity” is reported as “does not have the cardiotoxicity”. The “equivalent doses of LMTM” value in series [6] is recorded as 12 - 27 mg/MT per day. Also, in series [7], the “minimum effective dose required for anti-dementia effects” value is listed as 8 mg/day and the optimally effective dose is on record as 16 mg/day. The “better brain:plasma ratio” value in [8] was “more than 60 fold”. Also, the “better uptake into red cells” value in the series on red cells is recorded as 20 fold. In the series with Complex IV, the “brain Complex IV activity” value was “enhance brain Complex IV activity”.

`CC(C)(O)c1ccc2c(c1)/C(=C/CCN1CC[C@](O)(c3ccc(Cl)cc3)C(C)(C)C1)c1cccnc1CO2` [MLN-3897]: in the series with SARS-CoV-2 [1], the “inhibition of viral replication” value is “inhibited viral replication”.

As for `CC(C)CC(NC(=O)OCc1ccccc1)C(=O)NC(C(=O)NCC(=O)C=[N+]=[N-])C(C)C` (stereo not drawn) [Z LVG CHN2] (Cbz-Leu-Val-Gly-CHN2; configuration not given here), the “inhibition of viral replication” value in the series on SARS-CoV-2 [1] is on record as “inhibited viral replication”.
